# Test results from patent EP4501112A1, “PLANT DEFENSE ELICITORS” (Globachem NV, priority 2023, dated 2025).
# Legend:
# [1] = test system: English grain aphid (Sitobion avenae); test: Survival of S. avenae on wheat after foliar spray (greenhouse pots); type: in vivo; conditions: 0.65 g pelargonic acid in 500 mL water
# Experimental: DISEASE/PEST: English grain aphid (Sitobion avenae) CROP: WHEAT (Triticum aestivum) APPLICATION: FOLIAR PROTOCOL: T. aestivum plants were grown in pots (8x8 cm) in the greenhouse until reaching a height of 10 cm. Each pot contained 50 seeds. Each treatment consisted of 3 replicates. Plants were sprayed with a handheld sprayer containing 0.65 g of pelargonic acid in 500 mL of water for the 3 replicates. Control plants were sprayed with water. Spraying solutions (as noted in the Table 1) were prepared freshly before treatment. S. avenae (N=10) were added 1 hour after spraying. Insects were counted, 1, 4, 6, 12 and 14 days after the treatment applied. Table 1. Efficacy assessment survival of S. avenae on T. aestivum (number of aphids)
# Fusarium culmorum = test: whole plant or invertebrate; type: in vivo; conditions: Fusarium culmorum, in Triticum aestivum, 144 h, read-out: % Efficacy
# Meligethes Aeneus = test: Field trial, foliar spray against M. aeneus on oil seed rape; type: in vivo
# Excerpt: DISEASE/[…] Aeneus CROP: Oil seed rape (Brassica napus spp. Campino) APPLICATION: Foliar spray EXPERIMENT/TRIAL PROTOCOL: Foliar spray was applied in the field with a motorized sprayer in spring when the insects appeared on the crop (BBCH 38-41). The trial design consisted of a randomized complete block with 4 replications per treatment. The treated area per plot was 30m^2. Used water volume was 300 L/ha. Evaluation was done by counting adult insects per 25 plants. […] Table 5: Efficacy assessment: % efficacy versus untreated (%UNCK) of M. aeneus on B. napus (field)
# [2] = test system: Puccinia triticina (PUCCTR); test: Greenhouse trial, seed treatment against PUCCTR in wheat; type: in vivo
# Excerpt: [table] Table 9. Efficacy assessment of pelargonic acid as seed treatment of PUCCTR in wheat (variety Benchmark)
# Puccinia triticina = test: Greenhouse trial, foliar treatment against PUCCTR in wheat
# [3] = seed treatment 3.8 g ai/ton, 11 dai
# [4] = seed treatment 7.6 g ai/ton, 11 dai
# [5] = seed treatment 38 g ai/ton, 11 dai
# [6] = seed treatment 76 g ai/ton, 21 dai
structure (smiles),measurement,setting,value
"CCCCCCCCC(=O)O [Pelargonic acid, pelargonic acid]",survival of S. avenae on T. aestivum (number of aphids),[1]; 4 DAT,4.2
same,survival of S. avenae on T. aestivum (number of aphids),[1]; 6 DAT,7.4
same,survival of S. avenae on T. aestivum (number of aphids),"[1]; 10 aphids added 1 hour after spraying, 1 DAT",3
same,survival of S. avenae on T. aestivum (number of aphids),[1]; 12 DAT,9.6
same,survival of S. avenae on T. aestivum (number of aphids),[1]; 14 DAT,15
same,Emax,Fusarium culmorum,100%
same,% efficacy versus untreated (%UNCK) of M. aeneus on B. napus (field),"Meligethes Aeneus; 650 g/ha, 4DAA",91 b %
same,% efficacy versus untreated (%UNCK) of M. aeneus on B. napus (field),"Meligethes Aeneus; 650 g/ha, 8DAA",89 b %
same,% efficacy versus untreated (%UNCK) of M. aeneus on B. napus (field),"Meligethes Aeneus; 650 g/ha, 300 L/ha water, 1DAA",34.60 c %
same,% efficacy versus untreated (%UNCK) of M. aeneus on B. napus (field),"Meligethes Aeneus; 975 g/ha, 1DAA",79.25 ab %
same,% efficacy versus untreated (%UNCK) of M. aeneus on B. napus (field),"Meligethes Aeneus; 975 g/ha, 4DAA",100 a %
same,% efficacy versus untreated (%UNCK) of M. aeneus on B. napus (field),"Meligethes Aeneus; 975 g/ha, 8DAA",100 a %
same,EFFICACY % ALL LEAVES,[2]; [3],17.3%
same,EFFICACY % LEAF 1,[2]; [3],0.0%
same,EFFICACY % LEAF 2,[2]; [3],14.3%
same,EFFICACY % LEAF 3,[2]; [3],17.6%
same,EFFICACY % LEAF 4,[2]; [3],20.0%
same,EFFICACY % ALL LEAVES,[2]; [4],29.6%
same,EFFICACY % LEAF 1,[2]; [4],0.0%
same,EFFICACY % LEAF 2,[2]; [4],7.1%
same,EFFICACY % LEAF 3,[2]; [4],11.8%
same,EFFICACY % LEAF 4,[2]; [4],70.0%
same,EFFICACY % ALL LEAVES,[2]; [5],6.3%
same,EFFICACY % LEAF 1,[2]; [5],0.0%
same,EFFICACY % LEAF 2,[2]; [5],7.1%
same,EFFICACY % LEAF 3,[2]; [5],11.8%
same,EFFICACY % LEAF 4,[2]; [5],0.0%
same,EFFICACY % ALL LEAVES,[2]; [6],19.2%
same,EFFICACY % LEAF 1,[2]; [6],31.8%
same,EFFICACY % LEAF 2,[2]; [6],18.9%
same,EFFICACY % LEAF 3,[2]; [6],12.0%
same,EFFICACY % LEAF 4,[2]; [6],14.0%
same,EFFICACY % ALL LEAV ES,"Puccinia triticina; foliar 1.52 g ai/ha, 13 dai",18.6%
same,EFFICACY % LEAF 1,"Puccinia triticina; foliar 1.52 g ai/ha, 13 dai",50.0%
same,EFFICACY % LEAF 2,"Puccinia triticina; foliar 1.52 g ai/ha, 13 dai",5.9%
same,EFFICACY % LEAF 3,"Puccinia triticina; foliar 1.52 g ai/ha, 13 dai",5.9%
same,EFFICACY % LEAF 4,"Puccinia triticina; foliar 1.52 g ai/ha, 13 dai",12.5%
same,EFFICACY % ALL LEAV ES,"Puccinia triticina; foliar 7.6 g ai/ha, 21 dai",23.6%
same,EFFICACY % LEAF 1,"Puccinia triticina; foliar 7.6 g ai/ha, 21 dai",28.6%
same,EFFICACY % LEAF 2,"Puccinia triticina; foliar 7.6 g ai/ha, 21 dai",17.9%
same,EFFICACY % LEAF 3,"Puccinia triticina; foliar 7.6 g ai/ha, 21 dai",29.8%
same,EFFICACY % LEAF 4,"Puccinia triticina; foliar 7.6 g ai/ha, 21 dai",18.3%
same,EFFICACY % ALL LEAV ES,"Puccinia triticina; foliar 95 g ai/ha, 13 dai",11.3%
same,EFFICACY % LEAF 1,"Puccinia triticina; foliar 95 g ai/ha, 13 dai",33.3%
same,EFFICACY % LEAF 2,"Puccinia triticina; foliar 95 g ai/ha, 13 dai",0.0%
same,EFFICACY % LEAF 3,"Puccinia triticina; foliar 95 g ai/ha, 13 dai",11.8%
same,EFFICACY % LEAF 4,"Puccinia triticina; foliar 95 g ai/ha, 13 dai","0,0%"
same,EFFICACY % ALL LEAV ES,"Puccinia triticina; foliar 760 g ai/ha, 13 dai",30.5%
same,EFFICACY % LEAF 1,"Puccinia triticina; foliar 760 g ai/ha, 13 dai",66.7%
same,EFFICACY % LEAF 2,"Puccinia triticina; foliar 760 g ai/ha, 13 dai",11.8%
same,EFFICACY % LEAF 3,"Puccinia triticina; foliar 760 g ai/ha, 13 dai",0.0%
same,EFFICACY % LEAF 4,"Puccinia triticina; foliar 760 g ai/ha, 13 dai",43.8%
